Source: publication PMC9167697 (Clinical cancer research : an official journal of the …, 2022)
pKi: −log10 of the molar value.

Columns and labels:
[1] = biological target: human A2AR; settings: cited from earlier work
[2] = tested on: patients with advanced NSCLC; test: Safety, tolerability, DLT and MTD in the phase I/Ib dose-escalation study; type: in vivo
[3] = tested on: advanced/metastatic NSCLC; test: Tumor response; type: in vivo, human
[4] = Plasma pharmacokinetics of taminadenant in the phase I/Ib study; type: in vivo, human
[5] = tested on: mouse xenograft models; settings: cited from earlier work
[6] = tested on: A2AR; settings: cells transfected with A2AR; cited from earlier work
[7] = investigator-assessed, RECIST v1.1, n=25

For Nc1nc(-n2cccn2)nc(-n2cccn2)c1Br [Taminadenant], the “in vitro binding affinity to human A2AR, as concentration” value [1] is given as 3.67 ng/mL, the pKi ([1]; read-out: in vitro binding affinity to human A2AR) is given as 7.92 and the “dose delays or interruptions” value ([2]; human, in vivo) is given as 13 patients. The “patients who discontinued due to adverse events” value ([2]; human, in vivo) was 12.0%, the “patients with Grade 3/4 TRAEs” value ([2]; human, in vivo) was 16.0% and the “patients with treatment-related adverse events (TRAEs) of any grade” value ([2]; human, in vivo) was 84.0%. The “patients with treatment-related fatigue” value ([2]; human, in vivo) was 20.0%, the “patients with treatment-related gastroesophageal reflux disease” value ([2]; human, in vivo) was 24.0% and the “patients with treatment-related nausea” value ([2]; human, in vivo) was 44.0%. The “patients with treatment-related vomiting” value ([2]; human, in vivo) was 20.0%, the “dose delays due to TRAEs” value ([2]; in vivo) was “five” and the “patients reporting at least one adverse event, regardless of causality” value ([2]; in vivo) was “All patients”. The tolerability ([2]; in vivo) was “well tolerated”, the on-study deaths ([2]; n=25 per group, none related to study treatment) was 8.0% and the “maximum tolerated dose (MTD) of taminadenant” value ([2]; oral, combination with 400 mg spartalizumab Q4W) was 480 mg BID. The Disease control rate ([3]; CR + PR + SD, based on the number of evaluable patients) was 42.9 (21.8–66.0) % (95% CI), the Overall response rate ([3]; CR + PR, based on the number of evaluable patients) was 9.5 (1.2–30.4) % (95% CI) and the “median estimate of OS” value ([3]; Kaplan-Meier) was 9.7 months. For the same compound, the “median estimate of PFS” value ([3]; Kaplan-Meier, RECIST v1.1) was 3.9 months, the “Best overall response: Complete response” value [3, 7] was 1 (4.0) n (%) and the “Best overall response: Non-evaluable” value [3, 7] was 4 (16.0) n (%). The “Best overall response: Partial response” value [3, 7] was 1 (4.0) n (%), the “Best overall response: Progressive disease” value [3, 7] was 12 (48.0) n (%) and the “Best overall response: Stable disease” value [3, 7] was 7 (28.0) n (%). For the same compound, the “patients who achieved disease control” value ([3]; of all 25 patients per group) was 36.0%, the “duration of complete response” value ([3]; one patient each, single agent 480 mg, combination 160 mg taminadenant) was 1.1 months and the “duration of disease control in a patient with stable disease” value ([3]; one patient, 160 mg, on treatment at data cut-off) was 36.7 months. The Vd/F ([4]; human, in vivo) was 114 to 1520 L, the “apparent clearance (CL/F) upon repeated daily dosing compared with a single dose” value ([4]; human, in vivo) was “notably decreased” and the “time to maximum plasma drug concentration (Cmax)” value ([4]; human, in vivo, po) was 0.5 to 3 h. For the same compound, the “differences in taminadenant PK between the single-agent and combination group” value ([4]; large inter-individual variability in Cmax and AUC) was “no notable differences”, the “accumulation relative to a single dose” value ([4]; repeated daily doses, after 1 week) was “approximately 3 fold” and the “increase of systemic exposure (Cmax, AUC) with escalating doses” value ([4]; single and multiple doses from 80 mg to 640 mg) was “more-than-proportional”. For the same compound, the “effect on tumor growth” value [5] was “significantly reduced tumor growth” and the “effect on cyclic adenosine monophosphate accumulation” value [6] was “inhibition of cyclic adenosine monophosphate accumulation”.
